From patent US20220177446A1, “ALKYNE COMPOUNDS AS IRAK INHIBITORS, PREPARATION METHODS AND MEDICINAL USES THEREOF” (Eternity Bioscience Inc., priority 2020, published 2022)
Read-outs that look alike come from different tables or passages of the source.

Legend:
IRAK4 = target: T1, IRAK4 (Homo sapiens, UniProt Q9NWZ3); test: IRAK4 Human PBMC TNFα Cell Based Assay (AlphaLISA); details: TNFα measured
T1 construct: host or cells: human peripheral blood mononuclear cells (PBMCs)
T1 sequence (Q9NWZ3 1-460): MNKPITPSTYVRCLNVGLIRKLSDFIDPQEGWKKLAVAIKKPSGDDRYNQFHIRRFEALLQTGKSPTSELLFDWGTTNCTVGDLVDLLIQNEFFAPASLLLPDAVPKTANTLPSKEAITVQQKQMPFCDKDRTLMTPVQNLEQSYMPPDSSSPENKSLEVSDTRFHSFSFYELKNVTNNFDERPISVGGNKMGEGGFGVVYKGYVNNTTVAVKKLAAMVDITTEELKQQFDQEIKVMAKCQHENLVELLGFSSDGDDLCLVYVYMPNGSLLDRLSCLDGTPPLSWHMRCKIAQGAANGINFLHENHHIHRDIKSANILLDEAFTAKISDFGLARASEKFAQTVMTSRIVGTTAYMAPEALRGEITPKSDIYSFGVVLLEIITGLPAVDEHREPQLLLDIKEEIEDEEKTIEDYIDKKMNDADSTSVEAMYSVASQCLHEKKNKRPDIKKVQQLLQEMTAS
Procedure: In this assay, serially diluted compounds were incubated with 1×10^4 human peripheral blood mononuclear cells (PBMCs) from STEMCELL (Cat #70025.1) per well of 384-well plate (Fisher Scientific; 50-905-2761) and cultured with TexMACS medium (Miltenyi, Cat #130-097-196), stimulated by R848 (0.5 μM) or IL-1β (10 ng/ml). Plates were covered with lids and incubated for 4 h (R848, Fisher Scientific, Cat #NC9801605) or 24 h (IL-1β, Fisher Scientific, Cat #ENRIL1BI) at 37° C. in a humidified tissue-culture incubator. After a brief centrifugation at 1000 rpm for 5 minutes, 5 μl of culture medium was used for the measurement of the TNFα amount using TNFα (human) AlphaLISA Detection Kit (PerkinElmer, Cat #AL208C) according to manufacturer's protocol. A biotinylated anti-TNFα antibody binds to the Streptavidin-coated Donor beads while another anti-TNFα antibody is conjugated to AlphaLISA Acceptor beads. In the presence of the TNFα, the beads come into close proximity. The excitation of the Donor beads causes the release of singlet oxygen molecules that triggers a cascade of energy transfer in the Acceptor beads, resulting in a sharp peak of light emission at 615 nm. AlphaLISA assay plates were read using PHERAstar. Percentage of inhibition was calculated as below:
(§1) % inhibition=(1−(Reading(Sample)−Reading(Negative Control))/(Reading(Positive Control)−Reading(Negative Control)))×100%
The 0% inhibition value comes from the Reading of Positive Control wells having 0 nM compound. The 100% inhibition value comes from the Reading of Negative Control wells having no R848 or IL-1β.

[1] = target: T2, full length human IRAK4 protein (Homo sapiens, UniProt Q9NWZ3); test: IRAK4 Biochemical Assay (Promega ADP-Glo IRAK4 Kinase Enzyme System); details: 3 nM enzyme, 250 μM ATP; for IC50: 2 μM MBP, 60 min at room temperature; for IRAK4 Biochemical Assay Max Inhibition (%): maximum inhibition
T2 construct: Purified full length human IRAK4 protein; purchased Signal Chem I12-10G-125
T2 sequence (Q9NWZ3 1-460): T1 sequence (Q9NWZ3 1-460)
Procedure: For the routine compound screening, an IRAK4 kinase assay was performed as follows using Promega ADP-Glo IRAK4 Kinase Enzyme System (Promega, Cat #2198-AD). Purified full length human IRAK4 protein (Signal Chem; Cat #I12-10G-125) was diluted to a concentration 6 nM in assay buffer (25 mM MOPS, pH 7.2, 12.5 mM β-glycerol-phosphate, 25 mM MgCl2, 5 mM EGTA, 2 mM EDTA, 0.0025% Brij-35, add 0.25 mM DTT to Kinase Assay Buffer prior to use) containing IRAK4 inhibitor at 2× the final concentration in 0.4% DMSO. The reaction was performed in PerkinElmer Proxiplate-384 plus white plate (Fisher Scientific, Cat #50-905-2761) and started by the addition of an equal volume of the assay buffer containing 4 μM native swine myelin basic protein (MBP) and 500 μM ATP to achieve a final concentration of 3 nM enzyme, 2 μM MBP, 250 μM ATP, 1× compound, and 0.2% DMSO. The kinase reaction was allowed to run for 60 min at room temperature (25-27° C.), then 5 μL of ADP-Glo was added to the reaction in each well followed by 40 minutes-incubation at RT. To detect converted […], 10 μL Detection Buffer was added into each well and Incubate at RT in dark for 30 minutes. Finally, luminescence was read using Tecan with 1000 ms of integration time. The luminescent signal positively correlates with ADP amount and kinase activity. Data was analyzed by GraphPad Prism and IC50 was calculated using function log(inhibitor) vs. response—Variable slope (four parameters). Percentage of inhibition was calculated as below:
as §1
The 0% inhibition value comes from the Reading of Positive Control wells having 0 nM compound. The 100% inhibition value comes from the Reading of Negative Control wells having no IRAK4 kinase.

[2] = human PBMCs stimulated by IL-1β (10 ng/ml), 24 h, read-out: IRAK4 PBMC AlphaLISA IL-1β (IC50)
[3] = human PBMCs stimulated by R848 (0.5 μM), 4 h, read-out: IRAK4 PBMC AlphaLISA R848 (IC50)

| IC50 (IRAK4; [2]) [nM] | IC50 (IRAK4; [3]) [nM] | IC50 [1] [nM] | IRAK4 Biochemical Assay Max Inhibition (%) [1] [%] | SMILES |
| --- | --- | --- | --- | --- |
| 18.1 | 16 | 8.4 | 100.0 | CC[C@@H]1[C@H](F)C(=O)N[C@@H]1COc1ncc(C#CC(C)(C)NC(=O)OC(C)(C)C)c2cc(C(N)=O)c(OC)cc12 [Example 1, tert-butyl (4-(6-carbamoyl-1-(((2S,3S,4S)-3-ethyl-4-fluoro-5-oxopyrrolidin-2-yl)methoxy)-7-methoxyisoquinolin-4-yl)-2-methylbut-3-yn-2-yl)carbamate] |
| 25 | 16 | 63 | 100.0 | CC[C@@H]1[C@H](F)C(=O)N[C@@H]1COc1ncc(C#CC(C)(C)N)c2cc(C(N)=O)c(OC)cc12 [Example 2, 4-(3-amino-3-methylbut-1-yn-1-yl)-1-(((2S,3S,4S)-3-ethyl-4-fluoro-5-oxopyrrolidin-2-yl)methoxy)-7-methoxyisoquinoline-6-carboxamide] |
| 4.7 | 2.7 | 17 | 100.0 | CC[C@@H]1[C@H](F)C(=O)N[C@@H]1COc1ncc(C#CC(C)(C)O)c2cc(C(N)=O)c(OC)cc12 [Example 3, 1-(((2S,3S,4S)-3-ethyl-4-fluoro-5-oxopyrrolidin-2-yl)methoxy)-4-(3-hydroxyl-3-methylbut-1-yn-1-yl)-7-methoxyisoquinoline-6-carboxamide] |
|  |  | 5.7 | 98.0 | CC[C@@H]1[C@H](F)C(=O)N[C@@H]1COc1ncc(C#CC(=O)O)c2cc(C(N)=O)c(OC)cc12 [Example 4, 3-(6-carbamoyl-1-(((2S,3S,4S)-3-ethyl-4-fluoro-5-oxopyrrolidin-2-yl)methoxy)-7-methoxyisoquinolin-4-yl)propiolic acid] |
| 89 | 150 |  |  | COc1cc2c(OC[C@@H]3CCC(=O)N3)ncc(C#Cc3ccc(C)cc3)c2cc1C(N)=O [Example 7, (S)-7-methoxy-1-((5-oxopyrrolidin-2-yl)methoxy)-4-(p-tolylethynyl)isoquinoline-6-carboxamide] |
| 128 | 175 | 7.5 | 97.0 | COc1cc2c(OC[C@@H]3CCC(=O)N3)ncc(C#CCN(C)C)c2cc1C(N)=O [Example 8, (S)-4-(3-(dimethylamino)prop-1-yn-1-yl)-7-methoxy-1-((5-oxopyrrolidin-2-yl)methoxy)isoquinoline-6-carboxamide] |
| 110 | 140 | 14 | 100.0 | COCC#Cc1cnc(OC[C@@H]2CCC(=O)N2)c2cc(OC)c(C(N)=O)cc12 [Example 9, (S)-7-methoxy-4-(3-methoxyprop-1-yn-1-yl)-1-((5-oxopyrrolidin-2-yl)methoxy)isoquinoline-6-carboxamide] |
|  |  | 68 | 100.0 | CC[C@@H]1[C@H](F)C(=O)N[C@@H]1COc1ncc(C#Cc2nn[nH]n2)c2cc(C(N)=O)c(OC)cc12 [Example 10, 4-((2H-tetrazol-5-yl)ethynyl)-1-(((2S,3S,4S)-3-ethyl-4-fluoro-5-oxopyrrolidin-2-yl)methoxy)-7-methoxyisoquinoline-6-carboxamide] |
| 1 | 0.7 | 10 | 95.0 | CC[C@@H]1[C@H](F)C(=O)N[C@@H]1COc1ncc(C#CC(=O)N(C)C)c2cc(C(N)=O)c(OC)cc12 [Example 11, 4-(3-(dimethylamino)-3-oxoprop-1-yn-1-yl)-1-(((2S,3S,4S)-3-ethyl-4-fluoro-5-oxopyrrolidin-2-yl)methoxy)-7-methoxyisoquinoline-6-carboxamide] |
| 0.8 | 1.4 | 69 | 100.0 | CC[C@@H]1[C@H](F)C(=O)N[C@@H]1COc1ncc(C#Cc2cncnc2)c2cc(C(N)=O)c(OC)cc12 [Example 12, 1-(((2S,3S,4S)-3-ethyl-4-fluoro-5-oxopyrrolidin-2-yl)methoxy)-7-methoxy-4-(pyrimidin-5-ylethynyl)isoquinoline-6-carboxamide] |
| 1.3 | 1.6 | 18 | 95.0 | CC[C@@H]1[C@H](F)C(=O)N[C@@H]1COc1ncc(C#Cc2cnccn2)c2cc(C(N)=O)c(OC)cc12 [Example 13, 1-(((2S,3S,4S)-3-ethyl-4-fluoro-5-oxopyrrolidin-2-yl)methoxy)-7-methoxy-4-(pyrazin-2-ylethynyl)isoquinoline-6-carboxamide] |
| 1.3 | 1.6 | 29 | 100.0 | CC[C@@H]1[C@H](F)C(=O)N[C@@H]1COc1ncc(C#Cc2cccnc2)c2cc(C(N)=O)c(OC)cc12 [Example 14, 1-(((2S,3S,4S)-3-ethyl-4-fluoro-5-oxopyrrolidin-2-yl)methoxy)-7-methoxy-4-(pyridin-3-ylethynyl)isoquinoline-6-carboxamide] |
| 1.3 | 1.7 | 12 | 101.0 | CC[C@@H]1[C@H](F)C(=O)N[C@@H]1COc1ccc(C#CCN(C)C)c2cc(C(N)=O)c(OC)cc12 [Example 15, 8-(3-(dimethylamino)prop-1-yn-1-yl)-5-(((2S,3S,4S)-3-ethyl-4-fluoro-5-oxopyrrolidin-2-yl)methoxy)-3-methoxy-2-naphthamide] |
| 8.7 | 1.7 | 19 | 99.0 | CC[C@@H]1[C@H](F)C(=O)N[C@@H]1COc1ncc(C#Cc2ncccn2)c2cc(C(N)=O)c(OC)cc12 [Example 16, 1-(((2S,3S,4S)-3-ethyl-4-fluoro-5-oxopyrrolidin-2-yl)methoxy)-7-methoxy-4-(pyrimidin-2-ylethynyl)isoquinoline-6-carboxamide] |
| 1.5 | 2.4 | 32 | 100.0 | CC[C@@H]1[C@H](F)C(=O)N[C@@H]1COc1ncc(C#Cc2cnn(C)c2)c2cc(C(N)=O)c(OC)cc12 [Example 17, 1-(((2S,3S,4S)-3-ethyl-4-fluoro-5-oxopyrrolidin-2-yl)methoxy)-7-methoxy-4-((1-methyl-1H-pyrazol-4-yl)ethynyl)isoquinoline-6-carboxamide] |
| 1.7 | 2.5 | 27.5 | 95.0 | CC[C@@H]1[C@H](F)C(=O)N[C@@H]1COc1ncc(C#C[C@H](C)O)c2cc(C(N)=O)c(OC)cc12 [Example 18, 1-(((2S,3S,4S)-3-ethyl-4-fluoro-5-oxopyrrolidin-2-yl)methoxy)-4-((S)-3-hydroxybut-1-yn-1-yl)-7-methoxyisoquinoline-6-carboxamide] |
